# Reference: paper PMC7914897, “Cytotoxic Potential of a-Azepano- and 3-Amino-3,4-SeCo-Triterpenoids” (International Journal of Molecular Sciences, 2021)
# Experiments:
# [1] = system: SNB-75 (CNS cancer); assay: NCI-60 screen (SRB, 48 h); details: Homo sapiens; for GI50: SNB-75; for IC (TGI): SNB-75, 48 h, read-out: TGI; for CC50: SNB-75, read-out: LC50
# [2] = system: HCT-116 (Colon cancer); assay: NCI-60 screen (SRB, 48 h); details: Homo sapiens; for GI50: HCT-116; for IC (TGI): HCT-116, 48 h, read-out: TGI; for CC50: HCT-116, read-out: LC50
# [3] = system: OVCAR-8 (Ovarian cancer); assay: NCI-60 screen (SRB, 48 h); details: Homo sapiens; for GI50: OVCAR-8; for IC (TGI): OVCAR-8, 48 h, read-out: TGI; for CC50: OVCAR-8, read-out: LC50
# [4] = system: MDA-MB-435 (Melanoma); assay: NCI-60 screen (SRB, 48 h); assay type: cell-based; details: for GI50 / IC (TGI) / CC50: Homo sapiens; for GI50 / CC50: MDA-MB-435; for IC (TGI): MDA-MB-435, 48 h, read-out: TGI; for CC50: read-out: LC50 (the source's name)
# [5] = system: PC-3 (Prostate cancer); assay: NCI-60 screen (SRB, 48 h); details: Homo sapiens; for GI50: PC-3; for IC (TGI): PC-3, 48 h, read-out: TGI; for CC50: PC-3, read-out: LC50
# [6] = system: UACC-62 (Melanoma); assay: NCI-60 screen (SRB, 48 h); details: Homo sapiens; for GI50: UACC-62; for IC (TGI): UACC-62, 48 h, read-out: TGI; for CC50: UACC-62, read-out: LC50
# [7] = system: SK-OV-3 (Ovarian cancer); assay: NCI-60 screen (SRB, 48 h); details: Homo sapiens; for GI50: SK-OV-3; for IC (TGI): SK-OV-3, 48 h, read-out: TGI; for CC50: SK-OV-3, read-out: LC50
# [8] = system: 786-0 (Renal cancer); assay: NCI-60 screen (SRB, 48 h); details: for GI50 / IC (TGI) / CC50: Homo sapiens; for GI50: 786-0; for IC (TGI): 786-0, 48 h, read-out: TGI; for CC50: 786-0, read-out: LC50
# [9] = system: Ovarian Cancer subpanel; assay: NCI-60 screen, subpanel; details: Homo sapiens; for IC (TGI): 48 h, read-out: TGI MG_MID; for GI50: read-out: GI50 MG_MID; for CC50: read-out: LC50 MG_MID
# [10] = system: M14 (Melanoma); assay: NCI-60 screen (SRB, 48 h); details: Homo sapiens; for GI50: M14; for IC (TGI): M14, 48 h, read-out: TGI; for CC50: M14, read-out: LC50
# [11] = system: COLO 205 (Colon cancer); assay: NCI-60 screen (SRB, 48 h); details: Homo sapiens; for GI50: COLO 205; for IC (TGI): COLO 205, 48 h, read-out: TGI; for CC50: COLO 205, read-out: LC50
# [12] = system: SF-268 (CNS cancer); assay: NCI-60 screen (SRB, 48 h); details: Homo sapiens; for GI50: SF-268; for IC (TGI): SF-268, 48 h, read-out: TGI; for CC50: SF-268, read-out: LC50
# [13] = system: CAKI-1 (Renal cancer); assay: NCI-60 screen (SRB, 48 h); details: Homo sapiens; for GI50: CAKI-1; for IC (TGI): CAKI-1, 48 h, read-out: TGI; for CC50: CAKI-1, read-out: LC50
# [14] = system: HOP-62 (NSC lung cancer); assay: NCI-60 screen (SRB, 48 h); details: Homo sapiens; for GI50: HOP-62; for IC (TGI): HOP-62, 48 h, read-out: TGI
# [15] = system: HOP-92 (NSC lung cancer); assay: NCI-60 screen (SRB, 48 h); details: Homo sapiens; for GI50: HOP-92; for IC (TGI): HOP-92, 48 h, read-out: TGI; for CC50: HOP-92, read-out: LC50
# [16] = system: SF-539 (CNS cancer); assay: NCI-60 screen (SRB, 48 h); details: Homo sapiens; for GI50: SF-539; for IC (TGI): SF-539, 48 h, read-out: TGI; for CC50: SF-539, read-out: LC50
# [17] = system: NIH 3T3 (non-malignant mouse fibroblasts); assay: SRB cytotoxicity assay, 72 h; assay type: cell-based; details: Mus musculus, NIH3T3; NIH 3T3, 72 h, cut-off 30 µM; read-out: EC50
# Procedure, shortened: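 Cells seeded, treated 24 h later with serial dilutions (0–30 µM; DMSO ≤0.5%) for 72 h. TCA-fixed, SRB-stained, absorbance read at 570 nm; survival relative to untreated controls gives EC50.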
# [18] = system: OVCAR-5 (Ovarian cancer); assay: NCI-60 screen (SRB, 48 h); details: Homo sapiens; for GI50: OVCAR-5; for IC (TGI): OVCAR-5, 48 h, read-out: TGI; for CC50: OVCAR-5, read-out: LC50
# [19] = system: RXF 393 (Renal cancer); assay: NCI-60 screen (SRB, 48 h); details: Homo sapiens; for GI50: RXF 393; for IC (TGI): RXF 393, 48 h, read-out: TGI; for CC50: RXF 393, read-out: LC50
# [20] = system: MDA-MB-468 (Breast cancer); assay: cells; details: Homo sapiens; for GI50: MDA-MB-468; for IC (TGI): MDA-MB-468, 48 h, read-out: TGI; for CC50: MDA-MB-468, read-out: LC50
# [21] = system: MOLT-4 (Leukemia); assay: NCI-60 screen (SRB, 48 h); details: Homo sapiens; for GI50: MOLT-4; for IC (TGI): MOLT-4, 48 h, read-out: TGI
# [22] = system: NSC lung cancer subpanel; assay: NCI-60 screen, subpanel; details: Homo sapiens; for IC (TGI): 48 h, read-out: TGI MG_MID; for GI50: read-out: GI50 MG_MID; for CC50: read-out: LC50 MG_MID
compound,measurement,setting,value
C=C(C)[C@@H]1CC[C@]2(C)[C@H](CC=C3[C@@H]4[C@@H](C)[C@H](C)CC[C@]4(CO)CC[C@]32C)[C@@]1(C)CCCN [Compound 19],GI50,[1],0.85 µM
same,IC (TGI),[1],3.62 µM
same,CC50,[1],17.1 µM
same,GI50,[2],0.81 µM
same,IC (TGI),[2],1.54 µM
same,CC50,[2],2.93 µM
same,GI50,[3],1.16 µM
same,IC (TGI),[3],2.8 µM
same,CC50,[3],> 50 µM
same,GI50,[4],0.95 µM
same,IC (TGI),[4],1.81 µM
same,CC50,[4],3.45 µM
same,GI50,[5],1.65 µM
same,IC (TGI),[5],7.48 µM
same,CC50,[5],26 µM
same,GI50,[6],5.82 µM
same,IC (TGI),[6],12.6 µM
same,CC50,[6],27.3 µM
same,GI50,[7],4.42 µM
same,IC (TGI),[7],12 µM
same,CC50,[7],30.5 µM
same,GI50,[8],0.84 µM
same,IC (TGI),[8],1.58 µM
same,CC50,[8],2.97 µM
same,IC (TGI),[9],4.2 µM
same,GI50,[9],1.57 µM
same,CC50,[9],19.7 µM
same,GI50,[10],0.85 µM
same,IC (TGI),[10],1.76 µM
same,CC50,[10],3.64 µM
same,GI50,[11],0.9 µM
same,IC (TGI),[11],1.94 µM
same,CC50,[11],4.17 µM
same,GI50,[12],1.22 µM
same,IC (TGI),[12],2.69 µM
same,CC50,[12],14.8 µM
same,GI50,[13],1.69 µM
same,IC (TGI),[13],5.58 µM
same,CC50,[13],17.9 µM
same,GI50,[14],1.08 µM
same,IC (TGI),[14],2.36 µM
same,CC50,"[14]; HOP-62, read-out: LC50",> 50 µM
same,GI50,[15],1.04 µM
same,IC (TGI),[15],3.46 µM
same,CC50,[15],23.1 µM
same,GI50,[16],0.95 µM
same,IC (TGI),[16],1.73 µM
same,CC50,[16],3.17 µM
same,EC50,[17],4.64 ± 0.6 µM
same,GI50,[18],1.76 µM
same,IC (TGI),[18],6.15 µM
same,CC50,[18],20.9 µM
same,GI50,[19],0.83 µM
same,IC (TGI),[19],1.59 µM
same,CC50,[19],3.07 µM
same,GI50,[20],0.82 µM
same,IC (TGI),[20],1.66 µM
same,CC50,[20],3.36 µM
same,GI50,[21],1.35 µM
same,IC (TGI),[21],4.07 µM
same,CC50,"[21]; MOLT-4, read-out: LC50",27.9 µM
same,IC (TGI),[22],5.16 µM
same,GI50,[22],1.84 µM
same,CC50,[22],27 µM
C=C(C)[C@@H]1CC[C@]2(C)[C@H](C=CC3=C4C[C@@](C)(CO)CC[C@]4(C)CC[C@]32C)[C@@]1(C)CCCN [Compound 20],GI50,[1],1.53 µM
same,IC (TGI),[1],2.97 µM
same,CC50,[1],5.77 µM
same,GI50,[2],1.69 µM
same,IC (TGI),[2],3.21 µM
same,CC50,[2],6.08 µM
same,GI50,[3],2.13 µM
same,IC (TGI),[3],4.61 µM
same,CC50,[3],10 µM
same,GI50,[4],1.78 µM
same,IC (TGI),[4],3.2 µM
same,CC50,[4],5.76 µM
same,Growth % of the Most Sensitive Cell Lines,"[4]; MDA-MB-435, 1 dose 10 µM",−96.77%
same,GI50,[5],1.7 µM
same,IC (TGI),[5],3.28 µM
same,CC50,[5],6.33 µM
same,GI50,[6],1.78 µM
same,IC (TGI),[6],3.17 µM
same,CC50,[6],5.66 µM
same,GI50,[7],1.72 µM
same,IC (TGI),[7],3.17 µM
same,CC50,[7],5.85 µM
same,Growth % of the Most Sensitive Cell Lines,"[8]; 786-0, 1 dose 10 µM",−97.28%
same,GI50,[8],1.68 µM
same,IC (TGI),[8],3.44 µM
same,CC50,[8],7.04 µM
same,IC (TGI),[9],3.3 µM
same,GI50,[9],1.69 µM
same,CC50,[9],6.49 µM
same,GI50,[10],1.69 µM
same,IC (TGI),[10],3.34 µM
same,CC50,[10],6.62 µM
same,GI50,[11],1.49 µM
same,IC (TGI),[11],3.23 µM
same,CC50,[11],6.96 µM
same,GI50,[12],1.61 µM
same,IC (TGI),[12],3.25 µM
same,CC50,[12],6.56 µM
same,GI50,[13],1.52 µM
same,IC (TGI),[13],2.85 µM
same,CC50,[13],5.34 µM
same,GI50,[14],1.98 µM
same,IC (TGI),[14],4.04 µM
same,GI50,[15],1.48 µM
same,IC (TGI),[15],3.21 µM
same,CC50,[15],6.96 µM
same,GI50,[16],1.73 µM
same,IC (TGI),[16],3.13 µM
same,CC50,[16],5.67 µM
same,EC50,[17],3.46 ± 0.3 µM
same,GI50,[18],1.71 µM
same,IC (TGI),[18],3.06 µM
same,CC50,[18],5.57 µM
same,GI50,[19],1.62 µM
same,IC (TGI),[19],3.07 µM
same,CC50,[19],5.81 µM
same,GI50,[20],1.58 µM
same,IC (TGI),[20],3.2 µM
same,CC50,[20],6.47 µM
same,GI50,[21],1.78 µM
same,IC (TGI),[21],3.86 µM
same,IC (TGI),[22],3.38 µM
same,GI50,[22],1.71 µM
same,CC50,[22],6.24 µM
